Test results reported in patent US20050003022A1 (priority 2002, published 2005).

Assays:
influenza virus = system: influenza virus; design: species or system small mice; conditions: in vivo
[1] = in vivo; cited from earlier work
influenza = conditions: in vivo; cited from earlier work

| Compound | small mouse protection ratio (ED50) (influenza virus) [mg/kg] | utilization ratio of oral taken drug [1] [%] | median day for alleviating influenza symptoms (influenza) [days] | reduction from average influenza case (influenza) [days] |
| --- | --- | --- | --- | --- |
| NC(=O)c1ncn([C@@H]2O[C@H](CO)[C@@H](O)[C@H]2O)n1 [Ribavirin] | 25 |  |  |  |
| CC(=O)N[C@H]1[C@H]([C@H](O)[C@H](O)CO)OC(C(=O)O)=C[C@@H]1N=C(N)N [Zanamivir] |  | 2 | 6.5 | 1.3 |
